The source of these data is patent US11499978B2, “Method for measuring quality of therapeutic cell through real-time glutathione measurement” (CELL2IN, INC., priority 2017, dated 2022).

One assay concerns T cells. Kind of assay: Anti-inflammatory effect of treated hUC-MSCs on T cells. The conditions noted are these: hUC-MSCs treated with 125 or 250 μg/mL AA2G for three days. It counts as cell-based. On the procedure: The inventors observed an effect of the material on stem cells by treating each stem cells with a material for enhancing a glutathione evaluation parameter. When hUC-MSCs were subcultured in a L-AA2G-containing medium, CFU-F, migration capacity, and an anti-inflammatory effect were observed. A CFU-F assay (n=3) was performed by treating hUC-MSCs with 125 or 250 μg/mL of AA2G for three days. As shown in FIGS. 16A and 16B, it was confirmed that, when AA2G was treated, CFU-F increased. In addition, as hUC-MSCs were treated with 125 or 250 μg/mL of AA2G for three days, PDGF-AA-induced migration capacity (n=3) was analyzed. As shown in FIGS. 17A and 17B, it was confirmed that the migration capacity was increased by AA2G treatment. In addition, the reduction in T cell proliferation, the reduction in T cell differentiation, and the promotion of Treg cell differentiation were observed by treating hUC-MSCs with 125 or 250 μg/mL of AA2G for three days.
In addition, hUC-MSCs were cultured with ferrostatin-1 (0.2, 1, 2 and 4 μM) and liproxstatin-1 (0.1, 0.5, 1 and 2 μM), which control a glutathione level in cells by inhibiting lipid oxidation. […] Meanwhile, the hUC-MSCs were treated with 1 μM ferrostatin-1 for 24 hours, 0.2 mM GGC for 2 hours, and 2 mM GSH-EE for 2 hours. As a result, the reduction in T cell proliferation ability and the reduction in T cell differentiation capacity were observed, and promotion of Treg cell differentiation was observed.

Assay [1] concerns hUC-MSCs. Kind of assay: FreSH-Tracer-based glutathione regeneration capacity (GRC) in hUC-MSCs. Also noted: species or system human. Conditions: hUC-MSCs subcultured three times with AA2G 250 μg/mL; low concentration of diamide; compared with naive cell group. On the procedure: GRC refers to a value obtained by real-time monitoring of FR after living cells are treated with an oxidizing agent, as calculated by dividing a value obtained by subtracting AUC of a group treated with 0.1-100 mM N-ethylmaleimide (NEM) from FR AUC of an oxidizing agent (diamide, H2O2, etc.)-treated group by a value obtained by subtracting the AUC of NEM-treated group from AUC of the untreated control, and multiplying the resulting value by 100. The FR of the NEM-treated group is a value for increasing the sensitivity of a GRC value by treating it as the blank value of the FR of the cells of interest. […] To remove the MitoFreSH-Tracer from the medium before measurement, the medium was exchanged with fresh 10 mM HEPES-containing HBSS(Hanks' Balanced Salt Solution), and a fluorescence image was obtained using a confocal imaging system, Operetta. By comparing GSH levels quantified from control cells not treated with RSL3 or control cells before treated with RSL3, the distribution of GSH expression-changed cells was calculated. Based on the point where the distribution histogram is divided into two peaks, the cells were divided into GSH^High cells (right peak) and GSH^Low cells (left peak), and then a ratio of corresponding cells was expressed as a percentage (%). […]

Assay [2] concerns hUC-MSCs. Kind of assay: CFU-F assay of hUC-MSCs. It counts as cell-based, human. The conditions noted are these: 125 or 250 μg/mL AA2G for three days, n=3. The method, then: The inventors observed an effect of the material on stem cells by treating each stem cells with a material for enhancing a glutathione evaluation parameter. When hUC-MSCs were subcultured in a L-AA2G-containing medium, CFU-F, migration capacity, and an anti-inflammatory effect were observed. A CFU-F assay (n=3) was performed by treating hUC-MSCs with 125 or 250 μg/mL of AA2G for three days. As shown in FIGS. 16A and 16B, it was confirmed that, when AA2G was treated, CFU-F increased. In addition, as hUC-MSCs were treated with 125 or 250 μg/mL of AA2G for three days, PDGF-AA-induced migration capacity (n=3) was analyzed. As shown in FIGS. 17A and 17B, it was confirmed that the migration capacity was increased by AA2G treatment. In addition, the reduction in T cell proliferation, the reduction in T cell differentiation, and the promotion of Treg cell differentiation were observed by treating hUC-MSCs with 125 or 250 μg/mL of AA2G for three days. […] Meanwhile, hUC-MSCs were cultured with a glutathione precursor such as γ-glutamyl cysteine (GGC, 0.1, 0.25, and 0.5 mM). A CFU-F assay (n=3) was performed by treating hUC-MSCs with each concentration of GGC for 2 hours. […] In addition, SDF1α and PDGF-AA-induced migration capacities (n=3) were analyzed for hUC-MSCs without treatment with GGC, and SDF1α and PDGF-AA-induced migration abilities (n=3) were analyzed by treating hUC-MSCs with the increasing concentrations of GGC. STI571 was used as a PDGFR kinase inhibitor. As shown in FIGS. 20A to 20C, it was confirmed that, according to an increase in GGC treatment concentration, SDF1α- and PDGF-AA-induced migration capacities were enhanced. A CFU-F assay (n=3) was performed by treating hUC-MSCs with 0.2, 1, 2, and 4 μM ferrostatin-1 and 0.1, 0.5, 1, and 2 μM liproxstatin-1 for 24 hours.

As for `O=C1O[C@H]([C@@H](O)CO)C(O)=C1O[C@H]1O[C@H](CO)[C@@H](O)[C@H](O)[C@H]1O` [AA2G, ascorbic acid 2-glucoside], in the assay with T cells, the T cell differentiation result is recorded as “reduction”, the T cell proliferation entry is “reduction”, the Treg cell differentiation result is “promotion” and the “anti-inflammatory effect of stem cells” value is “exhibited”. For the same molecule, in the assay with hUC-MSCs [1], the “FreSH-Tracer-based GRC” value is given as “increased”. Also, the CFU-F result in the assay on hUC-MSCs [2] is given as “increased”.
